Test results: US8372978B2, “Salts of methyl 2-((R)-(3-chlorophenyl)((R)-1-((S)-2-(methylamino)-3-((R)-tetrahydro-2H-pyran-3-yl)propylcarbamoyl)piperidin-3-yl)methoxy)ethylcarbamate” (Vitae Pharmaceuticals, Inc., priority 2009, dated 2013)
Counter-ions that a name gives are not always drawn.

Experiments:
[1] = Pharmacokinetics after oral administration, plasma by LC/MS/MS, rat; assay type: in vivo; conditions: for AUC(0-t) / DNAUC0-t / Cmax: oral, 10 mg/kg (as salt), 0.5% methylcellulose in water
Protocol: IV formulations were prepared in 1% DMSO in sterile saline. PO formulations were prepared in 0.5% methylcellulose in water, unless otherwise indicated. After compound administration, plasma samples were obtained through 24 hours post-dosing from each animal using K2EDTA as the anticoagulant. Plasma samples were treated with two volumes of acetonitrile containing an internal standard (ritanserin). Samples were centrifuged at 4,000 rpm for 10 minutes at 25° C. Ten microliters of the supernatant was analyzed using LC/MS/MS. Standard curves are prepared for each species and range from 1.0 to 500 ng/mL The compound of Formula (I) and the internal standard were separated by reverse-phase HPLC using a gradient mobile phase and detected by +APCI monitoring the transitions m/z 525→327 (compound of Formula (I)) and m/z 478→193 (ritanserin).

[2] = Pharmacokinetics after oral administration, plasma by LC/MS/MS, dog; assay type: in vivo; conditions: for DNAUC0-t / AUC(0-t) / Cmax: oral; for AUC(0-t) / Cmax: plasma
Protocol: (§1) IV formulations were prepared in 1% DMSO in sterile saline. PO formulations were prepared in 0.5% methylcellulose in water, unless otherwise indicated. After compound administration, plasma samples were obtained through 24 hours post-dosing from each animal using K2EDTA as the anticoagulant. Plasma samples were treated with two volumes of acetonitrile containing an internal standard (ritanserin). Samples were centrifuged at 4,000 rpm for 10 minutes at 25° C. Ten microliters of the supernatant was analyzed using LC/MS/MS.

[3] = Pharmacokinetics after oral administration, plasma by LC/MS/MS, monkey; assay type: in vivo; conditions: for DNAUC0-t / AUC(0-t) / Cmax: oral, 0.5% methylcellulose in water; for AUC(0-t) / Cmax: plasma
Protocol: as §1

[4] = Water solubility; assay type: physicochemical
[5] = Hygroscopicity; assay type: physicochemical
[6] = 1 mg/kg (as salt), 2% DMSO in water
[7] = 2 mg/kg (as salt), 0.5% methylcellulose in water

SMILES: CN[C@H](CNC(=O)N1CCC[C@@H]([C@@H](OCCNC(=O)OC)c2cccc(Cl)c2)C1)C[C@H]1CCCOC1.O=C(O)/C=C/C(=O)O [Fumarate, methyl 2-((R)-(3-chlorophenyl)((R)-1-((S)-2-(methylamino)-3-((R)-tetrahydro-2H-pyran-3-yl)propylcarbamoyl)piperidin-3-yl)methoxy)ethylcarbamate fumaric acid salt]
- AUC(0-t) [1]: 477 ng·h/mL
- DNAUC0-t [1]: 48 ng·h/mL
- Cmax ([1]; plasma): 156 ng/mL
- DNAUC0-t [2, 6]: 458 ng·h/mL
- AUC(0-t) [2, 6]: 458 ng·h/mL
- Cmax [2, 6]: 286 ng/mL
- DNAUC0-t ([3]; 2 mg/kg (as salt)): 191 ng·h/mL
- AUC(0-t) ([3]; 2 mg/kg (as salt)): 381 ng·h/mL
- Cmax ([3]; 2 mg/kg (as salt)): 145 ng/mL

SMILES: CN[C@H](CNC(=O)N1CCC[C@@H]([C@@H](OCCNC(=O)OC)c2cccc(Cl)c2)C1)C[C@H]1CCCOC1 [Mucate, methyl 2-((R)-(3-chlorophenyl)((R)-1-((S)-2-(methylamino)-3-((R)-tetrahydro-2H-pyran-3-yl)propylcarbamoyl)piperidin-3-yl)methoxy)ethylcarbamate mucic acid salt (Form B)]
- in vivo bioavailability (in words) [1]: good in vivo bioavailability
- DNAUC0-t [1]: 68 ng·h/mL
- Cmax ([1]; plasma): 238 ng/mL
- AUC(0-t) ([1]; plasma, read-out: AUC0-t): 681 ng·h/mL
- in vivo bioavailability (in words) [2]: good in vivo bioavailability
- DNAUC0-t [2, 7]: 447 ng·h/mL
- AUC(0-t) [2, 7]: 895 ng·h/mL
- Cmax [2, 7]: 294 ng/mL
- in vivo bioavailability (in words) [3]: good in vivo bioavailability
- DNAUC0-t ([3]; 3 mg/kg (as salt)): 269 ng·h/mL
- AUC(0-t) ([3]; 3 mg/kg (as salt)): 807 ng·h/mL
- Cmax ([3]; 3 mg/kg (as salt)): 266 ng/mL
- water solubility (in words) [4]: good water solubility
- solubility ([4]; water, temperature not stated): 65 ± 5 mg/mL
- hygroscopicity (in words) [5]: sufficiently non-hygroscopic
